Assay results: patent US10017550B2, “Mycobacterium tuberculosis porins and toxins and related methods” (priority 2011, dated 2018)
In brackets after ≈: the same amount, converted by molar mass.

B1: N-terminal domain of MtpA: N-terminal domain (aa 1-444) of MtpA (Rv3903c), HA- and His-tagged, expressed in and purified from M. smegmatis (protein, UniProt O05442 1-444, looked up, fragment)
chain: MAPLAVDPAALDSAGGAVVAAGAGLGAVISSLTAALAGCAGMAGDDPAGAVFGRSYDGSAAALVQAMSVARNGLCNLGDGVRMSAHNYSLAEAMSDVAGRAAPLPAPPPSGCVGVGAPPSAVGGGGGAPKGWGWVAPYIGMIWPNGDSTKLRAAAVAWRSAGTQFALTEIQSTAGPMGVIRAQQLPEAGLIESAFADAYASTTAVVGQCHQLAAQLDAYAARIDAVHAAVLDLLARICDPLTGIKEVWEFLTDQDEDEIQRIAHDIAVVVDQFSGEVDALAAEITAVVSHAEAVITAMADHAGKQWDRFLHSNPVGVVIDGTGQQLKGFGEEAFGMAKDSWDLGPLRASIDPFGWYRSWEEMLTGMAPLAGLGGENAPGVVESWKQFGKSLIHWDEWTTNPNEALGKTVFDAATLALPGGPLSKLGSKGRDILAGVRGLKERLE
modifications: HA and His tags
notes: N-terminal domain (aa 1-444) of MtpA (Rv3903c), HA- and His-tagged, expressed in and purified from M. smegmatis
B2: N-terminal domain of MtpA (aa 49-444): truncated N-terminal domain of MtpA, codon optimized, Strep-, HA- and His-tagged, purified from E. coli (protein, UniProt O05442 49-444, looked up, fragment)
chain: GAVFGRSYDGSAAALVQAMSVARNGLCNLGDGVRMSAHNYSLAEAMSDVAGRAAPLPAPPPSGCVGVGAPPSAVGGGGGAPKGWGWVAPYIGMIWPNGDSTKLRAAAVAWRSAGTQFALTEIQSTAGPMGVIRAQQLPEAGLIESAFADAYASTTAVVGQCHQLAAQLDAYAARIDAVHAAVLDLLARICDPLTGIKEVWEFLTDQDEDEIQRIAHDIAVVVDQFSGEVDALAAEITAVVSHAEAVITAMADHAGKQWDRFLHSNPVGVVIDGTGQQLKGFGEEAFGMAKDSWDLGPLRASIDPFGWYRSWEEMLTGMAPLAGLGGENAPGVVESWKQFGKSLIHWDEWTTNPNEALGKTVFDAATLALPGGPLSKLGSKGRDILAGVRGLKERLE
modifications: Strep, HA and His tags
notes: truncated N-terminal domain of MtpA, codon optimized, Strep-, HA- and His-tagged, purified from E. coli

Tests used:
M. Bovis BCG ΔMtpA = format: cell-based; details: for Resistance factor: ratio MICΔMtpA/MICwt
[1] = test system: M. Bovis BCG ΔMtpA + MtpA; format: cell-based
[2] = test system: M. Bovis BCG ΔMtpA + MspA; format: cell-based
M. Bovis BCG Wild-type = assay: microbe, parasite or virus in culture; format: cell-based; details: Mycobacterium tuberculosis variant bovis BCG
[3] = test system: ΔMtpA mutant of M. bovis BCG in human monocyte-derived macrophages (HMDM); format: cell-based
[4] = test system: wild-type M. bovis BCG in human monocyte-derived macrophages (HMDM); format: cell-based
[5] = Channel activity analysis, planar lipid bilayer single channel recording; format: biochemical

Row | Molecule | MIC for M. Bovis BCG ΔMtpA (M. Bovis BCG ΔMtpA) | Resistance factor (M. Bovis BCG ΔMtpA) | MIC for M. Bovis BCG ΔMtpA + MtpA [1] | MIC for M. Bovis BCG ΔMtpA + MspA [2] | MIC (M. Bovis BCG Wild-type; wild-type strain) | other results
1 | CC1(C)S[C@@H]2[C@H](NC(=O)[C@H](N)c3ccccc3)C(=O)N2[C@H]1C(=O)O [Ampicillin] | 960 µg/mL | 32 | 60 µg/mL | 60 µg/mL | 30 µg/mL (≈ 85.9 µM) | increased minimal inhibitory concentration (MIC) / resistance in the ΔMtpA strain (M. Bovis BCG ΔMtpA): 32 fold
2 | O=C(N[C@H](CO)[C@H](O)c1ccc([N+](=O)[O-])cc1)C(Cl)Cl [Chloramphenicol] | 64 µg/mL | 16 | 8 µg/mL | 8 µg/mL | 4 µg/mL (≈ 12.4 µM) | increased minimal inhibitory concentration (MIC) / resistance in the ΔMtpA strain (M. Bovis BCG ΔMtpA): 16 fold
3 | O=C(O)c1cn(C2CC2)c2cc(N3CCNCC3)c(F)cc2c1=O [Ciprofloxacin] |  |  | 2 µg/mL | 2 µg/mL |  | MIC (M. Bovis BCG Wild-type): 1 µg/mL (≈ 3.02 µM)
4 | CC[C@H]1OC(=O)[C@H](C)[C@@H](O[C@H]2C[C@@](C)(OC)[C@@H](O)[C@H](C)O2)[C@H](C)[C@@H](O[C@@H]2O[C@H](C)C[C@H](N(C)C)[C@H]2O)[C@](C)(OC)C[C@@H](C)C(=O)[C@H](C)[C@@H](O)[C@]1(C)O [Clarithromycin] | >2 µg/mL | >16 | 0.25 µg/mL | 0.5 µg/mL | 0.125 µg/mL (≈ 0.167 µM) | 
5 | CC[C@H]1OC(=O)[C@H](C)[C@@H](O[C@H]2C[C@@](C)(OC)[C@@H](O)[C@H](C)O2)[C@H](C)[C@@H](O[C@@H]2O[C@H](C)C[C@H](N(C)C)[C@H]2O)[C@](C)(O)C[C@@H](C)C(=O)[C@H](C)[C@@H](O)[C@]1(C)O [Erythromycin A] |  | >16 | 16 µg/mL | 32 µg/mL | 16 µg/mL (≈ 21.8 µM) | 
6 | CC[C@@H](CO)NCCN[C@@H](CC)CO [Ethambutol] | >1 µg/mL | >8 | 0.125 µg/mL | 0.125 µg/mL | 0.125 µg/mL (≈ 0.612 µM) | change of resistance / MIC in the ΔMtpA mutant, in words (M. Bovis BCG ΔMtpA): more than eight-fold
7 | NNC(=O)c1ccncc1 [Isoniazid] | >1 µg/mL | >4 |  | 0.25 µg/mL | 0.25 µg/mL (≈ 1.82 µM) | change of resistance / MIC in the ΔMtpA mutant, in words (M. Bovis BCG ΔMtpA): more than eight-fold
8 | C[C@H]1COc2c(N3CCN(C)CC3)c(F)cc3c(=O)c(C(=O)O)cn1c23 [Levofloxacin] |  |  |  |  | 0.125 µg/mL (≈ 0.346 µM) | 
9 | COc1c(N2C[C@@H]3CCCN[C@@H]3C2)c(F)cc2c(=O)c(C(=O)O)cn(C3CC3)c12 [Moxifloxacin] |  |  |  |  | 0.5 µg/mL (≈ 1.25 µM) | 
10 | CCn1cc(C(=O)O)c(=O)c2cc(F)c(N3CCNCC3)cc21 [Norfloxacin] | 4 µg/mL | 4 | 2 µg/mL | 2 µg/mL | 1 µg/mL (≈ 3.13 µM) | 
11 | CC1COc2c(N3CCN(C)CC3)c(F)cc3c(=O)c(C(=O)O)cn1c23 (stereo not shown) [Ofloxacin] |  |  |  |  | 0.25 µg/mL (≈ 0.692 µM) | 
12 | CO[C@H]1/C=C/O[C@@]2(C)Oc3c(C)c(O)c4c(O)c(c(/C=N/N5CCN(C)CC5)c(O)c4c3C2=O)NC(=O)/C(C)=C\C=C\[C@H](C)[C@H](O)[C@@H](C)[C@@H](O)[C@@H](C)[C@H](OC(C)=O)[C@@H]1C [Rifampicin] |  |  |  |  |  | MIC (M. Bovis BCG Wild-type): 0.008 µg/mL (≈ 0.00972 µM)
13 | [H]/N=C(/N)N[C@H]1[C@H](O)[C@@H](O)[C@H](O[C@@H]2O[C@@H](C)[C@](O)(C=O)[C@H]2O[C@@H]2O[C@@H](CO)[C@H](O)[C@@H](O)[C@@H]2NC)[C@@H](N/C(N)=N\[H])[C@@H]1O [Streptomycin] | 0.64 µg/mL | 4 | 0.32 µg/mL | 0.32 µg/mL | 0.16 µg/mL (≈ 0.275 µM) | 
14 | CN(C)[C@@H]1C(O)=C(C(N)=O)C(=O)[C@@]2(O)C(O)=C3C(=O)c4c(O)cccc4[C@@](C)(O)[C@H]3C[C@@H]12 [Tetracycline] |  |  |  |  |  | MIC (M. Bovis BCG Wild-type): 31.2 µg/mL (≈ 70.3 µM)
15 | CN[C@H](CC(C)C)C(=O)N[C@H]1C(=O)N[C@@H](CC(N)=O)C(=O)N[C@H]2C(=O)N[C@H]3C(=O)N[C@H](C(=O)N[C@H](C(=O)O)c4cc(O)cc(O)c4-c4cc3ccc4O)[C@H](O)c3ccc(c(Cl)c3)Oc3cc2cc(c3O[C@@H]2O[C@H](CO)[C@@H](O)[C@H](O)[C@H]2O[C@H]2C[C@](C)(N)[C@H](O)[C@H](C)O2)Oc2ccc(cc2Cl)[C@H]1O [Vancomycin] | 20 µg/mL | 4 | 10 µg/mL | 10 µg/mL |  | MIC (M. Bovis BCG Wild-type): 5 µg/mL (≈ 3.45 µM)
16 | N[C@@H]1CON=C1O [cycloserine] | 8 µg/mL | 2 | 4 µg/mL | 4 µg/mL | 4 µg/mL (≈ 39.2 µM) | 
17 | Nc1ccc(C(=O)O)c(O)c1 [p-aminosalicylic acid] | >8 µg/mL | >4 | 2 µg/mL | 2 µg/mL | 2 µg/mL (≈ 13.1 µM) | change of resistance / MIC in the ΔMtpA mutant, in words (M. Bovis BCG ΔMtpA): more than eight-fold
18 | γ-interferon: human IFN-γ, induces nitric oxide synthase activity in macrophages |  |  |  |  |  | survival in treated macrophages compared to untreated cells [3]: no significant difference; bacteria recovered from stimulated HMDMs [4]: drastic decrease in bacteria recovered
19 | B1 |  |  |  |  |  | most frequent (main) single channel conductance [5]: 4.0±0.2 nS
20 | B2 |  |  |  |  |  | single channel conductance of protein purified from E. coli compared to that purified from M. smegmatis [5]: almost identical
